Measurements published in paper PMC10428205, “Cytotoxicity of Ruthenium(II) Arene Complexes Containing Functionalized Ferrocenyl β-Diketonate Ligands” (Organometallics, 2023).
Where two headings read alike, the source gives them in different places.

Columns and labels:
MIA PaCa-2 [1] = format: cell-based
Protocol: (§1) LogP = Log ( [C]final ) Eqn1
(§2) 96 h Chemosensitivity Studies
(§3) In vitro chemosensitivity tests were performed at both the University of Huddersfield and the Institute of Cancer Therapeutics, Bradford, in a sterile Class II Biological Safety Cabinet fitted with a HEPA filtered laminar airflow.
Cellular assays were conducted against human pancreatic carcinoma (MIA PaCa-2), human colorectal carcinoma p53-wildtype (HCT116 p53+/+), and human non-cancerous epithelial retinal cells (ARPE-19). […]
were obtained from the American Type Culture Collection and provided by the University of Huddersfield. All cell lines were routinely maintained as monolayer cultures in appropriate complete medium and maintained in either […]
T-25 or T-75 flasks at 37 °C and 5% CO2.
10% foetal calf serum. All medium was supplemented with sodium pyruvate (1 mM) and L-glutamine (2 mM), and prior to chemosensitivity studies, cell monolayers were passaged using Trypsin-EDTA and diluted to a […]
cells/mL cell suspension was added to each well and incubated for 24 h at 37 °C and 5% CO2. After 24 h, 100 mL of drug dilutions (fresh 100 mM stock solutions in DMSO) in media were added to the plates and then incubated for a further 96 h at 37°C and 5% CO2 (48 h + 48 h recovery period were used for the shorter exposures with MIA PaCa-2 cells only). After 96 h, 20 mL MTT (3-(4,5-dimethylthiazol-2-yl)-2,5-diphenyltetrazolium bromide, 5 mg/mL) was added to each well and incubated for 3 h at 37 °C and 5% CO2. All solutions were then removed from the 96-well plates via pipette and […] of DMSO added to each well to dissolve the purple formazan […]
FC spectrophotometer microplate reader. Using the blank and 100% cell controls, the % cell viability was determined [(abs. of compound containing wells – abs. media wells)/(abs. 100% cell suspension well control)] and from this the % cell death (100%- % cell viability) was calculated. On a logarithmic scale, the percentage cell death was plotted against the concentration of compound, and from this the half maximal inhibitory concentration (IC50) value was determined. Each of the experiments were performed in triplicate with mean values being stated as the IC50 ± Standard Deviation (SD). […]

MIA PaCa-2 [2] = assay: 24 and 48 h chemosensitivity (MTT, with recovery period); format: cell-based, human
Protocol: as §1, §2, §3
Cellular assays were conducted against human pancreatic carcinoma (MIA PaCa-2), human colorectal carcinoma p53-wildtype (HCT116 p53+/+), and human non-cancerous epithelial retinal cells (ARPE-19). The ARPE-19 cells were obtained from the American Type Culture Collection and provided by the University of Huddersfield. All cell lines were routinely maintained as monolayer cultures in appropriate complete medium and maintained in either T-25 or T-75 flasks at 37 °C and 5% CO2. MIA PaCa-2 and ARPE-19 cells were cultured in high glucose DMEM-F12 medium containing 10% foetal calf serum, and HCT116 p53+/+ was cultured in RPMI 1640 supplemented with 10% foetal calf serum. All medium was supplemented with sodium pyruvate (1 mM) and L-glutamine (2 mM), and prior to chemosensitivity studies, cell monolayers were passaged using Trypsin-EDTA and diluted to a concentration of 1 x 10^4 cells/mL. All assays were conducted using 96-well plates, in which […] of the 1 x 10^4 cells/mL cell suspension was added to each well and incubated for 24 h at 37 °C and 5% CO2. After 24 h, 100 mL of drug dilutions (fresh 100 mM stock solutions in DMSO) in media were added to the plates and then incubated for a further 96 h at 37°C and 5% CO2 (48 h + 48 h recovery period were used for the shorter exposures with MIA PaCa-2 cells only). After 96 h, 20 mL MTT (3-(4,5-dimethylthiazol-2-yl)-2,5-diphenyltetrazolium bromide, 5 mg/mL) was added to each well and incubated for 3 h at 37 °C and 5% CO2. All solutions were then removed from the 96-well plates via pipette and […] of DMSO added to each well to dissolve the purple formazan crystals. After mixing well, the absorbance of each well was measured at 540 nm using a ThermoFisher Multiskan FC spectrophotometer microplate reader. Using the blank and 100% cell controls, the % cell viability was determined [(abs. of compound containing wells – abs. media wells)/(abs. 100% cell suspension well control)] and from this the % cell death (100%- % cell viability) was calculated. On a logarithmic scale, the percentage cell death was plotted against the concentration of compound, and from this the half maximal inhibitory concentration (IC50) value was determined. Each of the experiments were performed in triplicate with mean values being stated as the IC50 ± Standard Deviation (SD).
24 and 48 h Chemosensitivity Studies
The same experimental protocol described for the 96 h MTT assay was used, and the MIA PaCa-2 cells were incubated for either 24 or 48 h, with a 72 or 48 h recovery period respectively. […]
All assays were conducted in triplicate.

Cyclic voltammetry = conditions: for E0′ (Fc*/Fc*+): 0.1 M TBAPF6 in acetonitrile, Fc/Fc+ = 0.40 V internal standard; for E0′ (Fc*/Fc*+) / EP Red: vs SCE; for EP Red: irreversible reduction; for E0’ (Fc*/Fc*+) at 0.05 V/s: scan speed 0.05 V/s; for E0’ (Fc*/Fc*+) at 0.10 V/s: scan speed 0.10 V/s; for E0’ (Fc*/Fc*+) at 0.25 V/s: scan speed 0.25 V/s
[3] = 96 h MTT, normoxic, ± SD, read-out: IC50 against MIA PaCa-2
[4] = MIA PaCa-2, 24 h exposure + 72 h recovery, read-out: IC50 values ± SD, 24 h
[5] = MIA PaCa-2, 48 h exposure + 48 h recovery, read-out: IC50 values ± SD, 48 h

| SMILES | Selectivity index (SI), IC50 ARPE-19 / IC50 MIA PaCa-2 (MIA PaCa-2 [1]; 96 h, * = minimum value as at least one IC50 > 100) | IC50 (MIA PaCa-2 [1]; [3]) [µM] | IC50 (MIA PaCa-2 [1]; MIA PaCa-2, 96 h, read-out: IC50 values ± SD (Table S14)) [µM] | IC50 (MIA PaCa-2 [2]; [4]) [µM] | IC50 (MIA PaCa-2 [2]; [5]) [µM] | E0′ (Fc*/Fc*+) (Cyclic voltammetry) [V] | EP Red (Cyclic voltammetry) | E0’ (Fc*/Fc*+) at 0.05 V/s (Cyclic voltammetry) [V] | E0’ (Fc*/Fc*+) at 0.10 V/s (Cyclic voltammetry) [V] | E0’ (Fc*/Fc*+) at 0.25 V/s (Cyclic voltammetry) [V] |
| --- | --- | --- | --- | --- | --- | --- | --- | --- | --- | --- |
| [NH2][Pt]([NH2])([Cl])[Cl] [CDDP, cisplatin, reference compound] | 1.7 | 3.6 ± 0.7 | 3.6 ± 0.7 | > 100 | 76 ± 3 | – | – | – | – | – |
| CC(O)=CC(=O)[c-]1cccc1.[Fe+2].c1cc[cH-]c1 [Complex L1] | – | 59 ± 2 | – | 76 ± 3 | 61 ± 1 | 0.63 | –1.98 V | 0.63 | 0.62 | 0.63 |
| O=C(C=C(O)c1ccccc1)[c-]1cccc1.[Fe+2].c1cc[cH-]c1 [Complex L2] | – | 38.7 ± 0.8 | – | > 100 | 68 ± 3 | 0.63 | –1.73 V | 0.63 | 0.63 | 0.63 |
| O=C(C=C(O)C(F)(F)F)[c-]1cccc1.[Fe+2].c1cc[cH-]c1 [Complex L7] | – | 17 ± 1 | – | > 100 | 20 ± 1 | 0.71 | –1.42 V | 0.71 | 0.71 | 0.71 |
